The record followed here is ChEMBL document CHEMBL5036304, “One Atom Makes All the Difference: Getting a Foot in the Door between SOS1 and KRAS” (J Med Chem, 2021).

Data set [1] is described as follows: Oral bioavailability in mouse. Type of data set: ADME, organism-based. As to conditions: in vivo.
Data set [2] can be described thus: Metabolic stability in mouse hepatocytes in presence of 50% serum. Type of data set: ADME, cell-based, Hepatocyte.
Data set [3] is described as follows: Metabolic stability in rat hepatocytes in presence of 50% serum. Format: ADME, cell-based, Hepatocyte.
Data set [4] can be described thus: Metabolic stability in human hepatocytes in presence of 50% serum. Format: ADME, cell-based, Hepatocyte.
A short description of data set [5]: Oral bioavailability in rat. Type of data set: ADME, organism-based. To be noted: in vivo.
The nature of data set [6]: Anticancer activity against human DLD-1 cells xenografted rat model assessed as tumor growth inhibition at 50 mg/kg measured. Type of data set: functional. As to conditions: read-out: TGI. On the technique in general: A xenograft is tissue or cells of one species grown in another, often human tumour cells in immunodeficient mice.
The subject of data set [7] is DLD-1. Put plainly: Induction of apoptosis in human DLD-1 cells harboring KRAS G13D mutant assessed as cleaved-PRAP measured after 24 to 48 hrs. Format: functional, cell-based. As to conditions: time 24-48 hrs.
The target in data set [8] is T1, SOS1-KRAS (Homo sapiens, UniProt Q07889). Description: Activation of SOS1/KRAS G12D mutant (unknown origin) protein-protein interaction using GDP nucleotide as substrate measured after 30 mins by Alphascreen assay. Background: In Alpha technology, singlet oxygen from a donor bead excites a nearby acceptor bead.
Data set [9] concerns the target T2, Son of sevenless homolog 1 (Homo sapiens, UniProt Q07889).
T2 sequence (Q07889 whole entry): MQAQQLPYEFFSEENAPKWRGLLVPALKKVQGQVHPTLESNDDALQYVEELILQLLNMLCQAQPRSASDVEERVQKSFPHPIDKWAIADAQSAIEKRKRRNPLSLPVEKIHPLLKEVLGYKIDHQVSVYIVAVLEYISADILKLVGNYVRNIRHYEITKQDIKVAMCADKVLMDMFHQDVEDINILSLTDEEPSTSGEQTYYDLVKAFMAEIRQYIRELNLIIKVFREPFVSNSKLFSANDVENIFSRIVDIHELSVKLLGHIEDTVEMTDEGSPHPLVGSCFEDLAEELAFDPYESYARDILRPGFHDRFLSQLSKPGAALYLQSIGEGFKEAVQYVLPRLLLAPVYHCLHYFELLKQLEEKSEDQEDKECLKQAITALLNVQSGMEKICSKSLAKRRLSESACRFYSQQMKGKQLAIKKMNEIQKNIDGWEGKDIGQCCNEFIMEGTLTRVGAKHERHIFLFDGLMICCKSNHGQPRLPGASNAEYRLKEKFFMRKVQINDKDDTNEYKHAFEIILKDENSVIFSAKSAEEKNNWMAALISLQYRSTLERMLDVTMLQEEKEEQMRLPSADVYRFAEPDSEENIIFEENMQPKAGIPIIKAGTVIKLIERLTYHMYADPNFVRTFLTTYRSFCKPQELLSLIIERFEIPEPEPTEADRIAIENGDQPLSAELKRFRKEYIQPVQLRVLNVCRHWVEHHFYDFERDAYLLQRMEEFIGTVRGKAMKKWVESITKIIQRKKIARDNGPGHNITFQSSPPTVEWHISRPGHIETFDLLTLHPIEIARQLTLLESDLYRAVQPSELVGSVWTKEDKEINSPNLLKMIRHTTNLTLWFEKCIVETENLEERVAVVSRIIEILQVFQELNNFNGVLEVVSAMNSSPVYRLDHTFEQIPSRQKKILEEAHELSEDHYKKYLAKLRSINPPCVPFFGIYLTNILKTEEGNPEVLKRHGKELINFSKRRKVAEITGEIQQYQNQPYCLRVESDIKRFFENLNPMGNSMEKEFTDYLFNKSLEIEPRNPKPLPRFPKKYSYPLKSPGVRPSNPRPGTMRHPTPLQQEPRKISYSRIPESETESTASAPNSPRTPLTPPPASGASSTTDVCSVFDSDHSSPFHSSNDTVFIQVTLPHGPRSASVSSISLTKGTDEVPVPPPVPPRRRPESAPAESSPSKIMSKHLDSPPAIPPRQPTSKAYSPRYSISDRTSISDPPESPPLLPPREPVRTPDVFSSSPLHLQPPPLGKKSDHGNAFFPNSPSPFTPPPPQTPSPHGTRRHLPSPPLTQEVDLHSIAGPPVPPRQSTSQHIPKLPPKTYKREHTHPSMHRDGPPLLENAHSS
Description: Binding affinity to SOS1 (unknown origin) assessed as dissociation constant by SPR analysis. (SPR reads the build-up and loss of mass on a sensor chip optically.)

Data set [10] concerns the target T1, SOS1-KRAS. Description: Inhibition of SOS1/KRAS G12D mutant (unknown origin) protein-protein interaction using GDP nucleotide as substrate measured after 30 mins by Alphascreen assay.
The target of data set [11] is Epidermal growth factor receptor (Homo sapiens, UniProt P00533). Description: Inhibition of EGFR (unknown origin).
Chain of Epidermal growth factor receptor (P00533 whole entry): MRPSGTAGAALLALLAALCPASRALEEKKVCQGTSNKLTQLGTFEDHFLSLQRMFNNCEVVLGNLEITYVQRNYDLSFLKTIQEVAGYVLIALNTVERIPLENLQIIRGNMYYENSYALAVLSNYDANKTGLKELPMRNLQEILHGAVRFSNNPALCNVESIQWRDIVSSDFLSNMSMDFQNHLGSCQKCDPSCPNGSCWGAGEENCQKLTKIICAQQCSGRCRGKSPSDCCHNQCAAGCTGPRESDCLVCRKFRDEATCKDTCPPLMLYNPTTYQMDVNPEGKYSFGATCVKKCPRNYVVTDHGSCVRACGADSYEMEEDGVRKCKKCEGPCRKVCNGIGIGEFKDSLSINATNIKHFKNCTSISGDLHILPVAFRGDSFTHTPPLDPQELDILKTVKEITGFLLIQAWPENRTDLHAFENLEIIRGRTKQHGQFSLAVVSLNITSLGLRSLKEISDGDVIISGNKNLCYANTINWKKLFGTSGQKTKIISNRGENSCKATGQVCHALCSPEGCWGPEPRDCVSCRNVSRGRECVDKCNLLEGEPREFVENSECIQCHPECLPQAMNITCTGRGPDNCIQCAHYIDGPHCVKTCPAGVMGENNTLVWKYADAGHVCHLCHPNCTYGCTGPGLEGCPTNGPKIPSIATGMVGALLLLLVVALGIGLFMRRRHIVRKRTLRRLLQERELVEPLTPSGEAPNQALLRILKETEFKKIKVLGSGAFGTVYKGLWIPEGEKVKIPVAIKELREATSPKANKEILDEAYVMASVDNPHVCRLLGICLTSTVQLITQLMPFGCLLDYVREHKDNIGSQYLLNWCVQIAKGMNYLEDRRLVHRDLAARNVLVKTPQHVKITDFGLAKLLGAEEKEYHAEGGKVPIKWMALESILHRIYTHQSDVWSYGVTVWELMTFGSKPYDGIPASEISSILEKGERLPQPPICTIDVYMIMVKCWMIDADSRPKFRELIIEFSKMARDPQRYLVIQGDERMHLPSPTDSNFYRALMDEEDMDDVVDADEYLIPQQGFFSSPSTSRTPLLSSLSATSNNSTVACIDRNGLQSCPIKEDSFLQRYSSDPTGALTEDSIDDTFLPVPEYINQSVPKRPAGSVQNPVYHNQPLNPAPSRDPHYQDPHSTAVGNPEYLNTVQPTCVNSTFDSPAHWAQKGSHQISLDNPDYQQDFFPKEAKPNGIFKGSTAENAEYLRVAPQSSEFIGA
A short description of data set [12]: Efflux ratio of apparent permeability from basolateral to apical side over apical to basolateral side in human Caco-2 cells at 10 uM.
Data set [13] relates to DLD-1. Put plainly: Induction of apoptosis in human DLD-1 cells harboring KRAS G13D mutant assessed as cleaved-PRAP at 0.1 nM measured after 24 to 48 hrs. Type of data set: functional, cell-based. As to conditions: time 24-48 hrs.
Data set [14] relates to DLD-1. Description: Induction of apoptosis in human DLD-1 cells harboring KRAS G13D mutant assessed as cleaved-PRAP at 100 nM measured after 24 to 48 hrs. Format: functional, cell-based. To be noted: time 24-48 hrs.

Calls of active or inactive are those of the source. The calls are words filed in the database; no cut-off is given here. A value given as a limit tells only on which side of the number the result lay.

Usually bioavailability stands for the share of a dose that reaches the circulation, judged against a reference dose that is usually intravenous. Lower therefore signals poor availability. As usually defined, the EC50 is the concentration at which the effect is half-maximal. A higher EC50 goes with a need for much substance. One may read the Kd as the concentration at which binding is half-saturated. Broadly, the IC50 is the point on the concentration scale where inhibition reaches its midpoint. A higher IC50 goes with weaker potency in that assay. As usually defined, the efflux ratio is the permeability from basolateral to apical divided by that in the opposite direction, in the common usage.

With `COc1cc2nc(C)nc(N[C@H](C)c3cc(N)cc(C(F)(F)F)c3)c2cc1O[C@H]1CCOC1`, the bioavailability in data set [1] and in data set [5] was 100% throughout. For the same compound, the Stability in [2] was found to be 45%; in data set [3] it was 28%; in data set [4] it was 14%. For the same compound, in [6], the inhibition in vivo at 50 mg/kg was 37%. Further, the outcome in data set [7] was Active.

Consider `Cc1nc(N[C@H](C)c2cc(N)cc(C(F)(F)F)c2)c2cc(F)ccc2n1`, for which the concentration for a half-maximal effect (EC50) in [8] amounted to 939 nM. Also, the Kd in data set [9] is 751 nM.

As to `COc1cc2nc(C)nc(N[C@H](C)c3ccccc3)c2cc1OC`, the results for the IC50 in data set [10] and in data set [11] were 453 nM and 2800 nM, respectively. Moreover, the dissociation constant (Kd) in [9] was 469 nM. Further, in [12], the efflux ratio at 10 µM stood at 0.6.

Take `CC(=O)Nc1cccc(-n2c(=O)n(C3CC3)c(=O)c3c(Nc4ccc(I)cc4F)n(C)c(=O)c(C)c32)c1`: the outcome in [13] was Active.

Regarding `COc1cc2nc(C)nc(N[C@H](C)c3cccc(C(F)(F)F)c3)c2cc1OC`, the half-inhibitory concentration (IC50) is 106 nM in data set [10] and above 20000 nM in data set [11]. In data set [9], the Kd was determined as 104 nM. In addition, the efflux ratio at 10 µM in data set [12] is 0.3.

`COc1ccc2nc(C)nc(N[C@H](C)c3cc(N)cc(C(F)(F)F)c3)c2c1` came in with an IC50 in data set [10] of 33 nM. Besides, the Kd in data set [9] came to 24 nM.

As to `CN(C)C/C=C/C(=O)Nc1cc2c(Nc3ccc(F)c(Cl)c3)ncnc2cc1O[C@H]1CCOC1` [AFATINIB], in [6], the inhibition in vivo at 50 mg/kg amounted to 7%. Also, in data set [14], the result was Active.

In data set [10], `CC(C)c1noc2ncc(C(=O)NC(C)c3cccc(S(N)(=O)=O)c3)cc12` (stereo unspecified) registered an IC50 of 1190 nM. Further, the Kd in data set [9] was 937 nM.

For `COc1cc2nc(C)nc(N[C@H](C)c3cccc(N)c3)c2cc1OC`, in data set [10], the IC50 amounted to 355 nM. Also, the dissociation constant Kd in data set [9] is 123 nM. Further, in data set [12], the efflux ratio at 10 µM was determined as 1.3.

In the case of `COc1cc2nc(C)nc(N[C@H](C)c3cccc(S(N)(=O)=O)c3)c2cc1OC`, the IC50 in [10] was 56 nM; in data set [11] it was above 20000 nM. The Kd in [9] turned out to be 16 nM. Also, the efflux ratio at 10 µM in [12] came to 50.

With `N[C@@H](Cc1c[nH]c2ccccc12)C(=O)NC1CCN(Cc2c[nH]c3ccccc23)CC1`, the EC50 in data set [8] was found to be 11100 nM. For the same compound, in data set [9], the dissociation constant (Kd) came to 19300 nM.

The compound `COc1cc2nc(C)nc(N[C@H](C)c3cc(N)cc(C(F)(F)F)c3)c2cc1OC` had an IC50 in [10] of 15 nM. The Kd in [9] came out at 16 nM. The efflux ratio at 10 µM in data set [12] is 0.7.

Take `Cc1nc(N[C@H](C)c2cc(N)cc(C(F)(F)F)c2)c2cc(Cl)ccc2n1`: the half-maximal inhibitory concentration (IC50) in data set [10] was 3830 nM. The Kd in data set [9] amounted to 1490 nM.

For `COc1cc2ncnc(N[C@H](C)c3ccccc3)c2cc1OC`, the IC50 in [10] came to 1050 nM; in data set [11] it was 1 nM. Also, in data set [9], the dissociation constant Kd was found to be 301 nM.
